The results in this text go back to patent US6093732A, “4-hydroxyquinoline-3-carboxamides and hydrazides as antiviral agents” (Pharmacia & Upjohn Company, priority 1998, dated 2000).

Type in all cases: biochemical
In one test the target is HSV polymerase (Human herpesvirus 1, UniProt P04293). Kind of test: HSV polymerase assay (procedure similar to the HCMV polymerase SPA). The settings on record: Table 1, read-out: Antiviral Selective Polymerase IC50 Values, HSV. The procedure: (§1) The HCMV polymerase assay is performed using a scintillation proximity assay (SPA) as described in several references, such as N. D. Cook, et al., Pharmaceutical Manufacturing International, pages 49-53 (1992); K. Takeuchi, Laboratory Practice, September issue (1992); U.S. Pat. No. 4,568,649 (1986); which are incorporated by reference herein. Reactions are performed in 96-well plates. The assay is conducted in 100 μl volume with 5.4 mM HEPES (pH 7.5), 11.7 mM KCl, 4.5 mM MgCl2, 0.36 mg/ml BSA, and 90 nM ^3 H-dTTP. Assays are run with and without CHAPS, (3-[(3-Cholamidopropyl)-dimethylammonio]-1-propane-sulfonate) at a final concentration of 2 mM. HCMV polymerase is diluted in enzyme dilution buffer containing 50% glycerol, 250 mM NaCl, 10 mM HEPES (pH 7.5), 100 μg/ml BSA, and 0.01% sodium azide. The HCMV polymerase, which is expressed in recombinant baculovirus-infected SF-9 cells and purified according to literature procedures, is added at 10% (or 10 μl) of the final reaction volume, i.e., 100 μl. Compounds are diluted in 50% DMSO and 10 μl are added to each well. Control wells contain an equivalent concentration of DMSO. Unless noted otherwise, reactions are initiated via the addition of 6 nM biotinylated poly(dA)-oligo(dT) template/primer to reaction mixtures containing the enzyme, substrate, and compounds of interest. Plates are incubated in a 25° C. or 37° C. H2 O bath and terminated via the addition of 40 μl/reaction of 0.5 M EDTA (pH 8) per well. Reactions are terminated within the time-frame during which substrate incorporation is linear and varied depending upon the enzyme and conditions used, i.e., 30 min. for HCMV polymerase. Ten μl of streptavidin-SPA beads (20 mg/ml in PBS/10% glycerol) are added following termination of the reaction. Plates are incubated 10 min. at 37° C., then equilibrated to room temperature, and counted on a Packard Topcount. Linear regressions are performed and IC50 's are calculated using computer software.
(§2) A modified version of the above HCMV polymerase assay is performed as described above, but with the following changes: Compounds are diluted in 100% DMSO until final dilution into assay buffer. In the previous assay, compounds are diluted in 50% DMSO. 4.5 mM dithiotherotol (DTT) is added to the polymerase buffer. […] Other viral polymerase assays are performed using procedures similar to those described above.

A further test concerns the target T1, HCMV polymerase (Human cytomegalovirus, UniProt P08546).
T1 construct: made in house; host or cells: recombinant baculovirus-infected SF-9 cells
In words: HCMV polymerase scintillation proximity assay (SPA), modified version. The settings on record: CMV polymerase; Table 1; modified assay with 4.5 mM DTT, compounds in 100% DMSO; read-out: Antiviral Selective Polymerase IC50 Values, CMV. The procedure, abridged:
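Recombinant polymerase (baculovirus/SF-9) in 5.4 mM HEPES pH 7.5, 11.7 mM KCl, 4.5 mM MgCl2, 0.36 mg/ml BSA, 90 nM 3H-dTTP, ±2 mM CHAPS; started with 6 nM biotinylated poly(dA)-oligo(dT), 25° C or 37° C, EDTA-stopped in linear range (30 min for HCMV). Streptavidin-SPA read; IC50 by linear regression. Modified version: 100% DMSO compound dilution, 4.5 mM DTT added.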

The next test deals with VZV polymerase (Varicella-zoster virus, UniProt P09252). In words: VZV polymerase assay (procedure similar to the HCMV polymerase SPA). The settings on record: Table 1, read-out: Antiviral Selective Polymerase IC50 Values, VZV. On the procedure:
as §1, §2

T1 sequence (P08546 whole entry): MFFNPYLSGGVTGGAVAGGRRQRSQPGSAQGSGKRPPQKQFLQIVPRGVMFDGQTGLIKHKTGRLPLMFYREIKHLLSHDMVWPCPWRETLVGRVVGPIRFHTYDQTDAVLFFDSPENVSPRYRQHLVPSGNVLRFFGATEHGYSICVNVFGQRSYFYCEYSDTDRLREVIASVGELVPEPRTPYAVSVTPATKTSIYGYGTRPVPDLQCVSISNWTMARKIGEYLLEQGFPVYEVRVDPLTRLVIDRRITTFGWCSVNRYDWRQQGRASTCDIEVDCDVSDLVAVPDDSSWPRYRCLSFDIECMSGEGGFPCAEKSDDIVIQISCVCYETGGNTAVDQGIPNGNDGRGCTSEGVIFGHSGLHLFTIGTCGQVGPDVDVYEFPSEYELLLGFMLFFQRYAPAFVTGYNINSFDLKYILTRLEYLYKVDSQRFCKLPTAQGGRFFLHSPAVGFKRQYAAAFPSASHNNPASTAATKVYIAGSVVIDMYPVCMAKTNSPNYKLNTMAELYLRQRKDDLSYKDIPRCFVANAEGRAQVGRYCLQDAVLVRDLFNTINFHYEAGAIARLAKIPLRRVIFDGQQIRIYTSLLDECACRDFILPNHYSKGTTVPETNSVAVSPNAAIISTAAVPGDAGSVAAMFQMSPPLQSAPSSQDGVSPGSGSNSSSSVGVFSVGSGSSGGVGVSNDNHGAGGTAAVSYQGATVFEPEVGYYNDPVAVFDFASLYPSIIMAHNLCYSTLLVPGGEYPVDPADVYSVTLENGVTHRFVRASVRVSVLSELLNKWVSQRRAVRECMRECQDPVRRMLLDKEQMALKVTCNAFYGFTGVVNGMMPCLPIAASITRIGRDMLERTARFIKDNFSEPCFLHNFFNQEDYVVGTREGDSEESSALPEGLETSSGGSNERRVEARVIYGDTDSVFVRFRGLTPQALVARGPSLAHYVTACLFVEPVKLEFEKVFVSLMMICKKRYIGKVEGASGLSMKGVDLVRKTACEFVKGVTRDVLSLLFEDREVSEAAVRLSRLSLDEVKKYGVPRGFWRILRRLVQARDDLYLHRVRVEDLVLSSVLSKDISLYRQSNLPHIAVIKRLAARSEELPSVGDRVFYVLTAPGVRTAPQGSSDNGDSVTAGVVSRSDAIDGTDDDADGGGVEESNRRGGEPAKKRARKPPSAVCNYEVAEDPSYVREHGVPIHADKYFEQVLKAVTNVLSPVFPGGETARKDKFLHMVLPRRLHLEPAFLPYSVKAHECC
HSV polymerase, sequence (P04293 whole entry): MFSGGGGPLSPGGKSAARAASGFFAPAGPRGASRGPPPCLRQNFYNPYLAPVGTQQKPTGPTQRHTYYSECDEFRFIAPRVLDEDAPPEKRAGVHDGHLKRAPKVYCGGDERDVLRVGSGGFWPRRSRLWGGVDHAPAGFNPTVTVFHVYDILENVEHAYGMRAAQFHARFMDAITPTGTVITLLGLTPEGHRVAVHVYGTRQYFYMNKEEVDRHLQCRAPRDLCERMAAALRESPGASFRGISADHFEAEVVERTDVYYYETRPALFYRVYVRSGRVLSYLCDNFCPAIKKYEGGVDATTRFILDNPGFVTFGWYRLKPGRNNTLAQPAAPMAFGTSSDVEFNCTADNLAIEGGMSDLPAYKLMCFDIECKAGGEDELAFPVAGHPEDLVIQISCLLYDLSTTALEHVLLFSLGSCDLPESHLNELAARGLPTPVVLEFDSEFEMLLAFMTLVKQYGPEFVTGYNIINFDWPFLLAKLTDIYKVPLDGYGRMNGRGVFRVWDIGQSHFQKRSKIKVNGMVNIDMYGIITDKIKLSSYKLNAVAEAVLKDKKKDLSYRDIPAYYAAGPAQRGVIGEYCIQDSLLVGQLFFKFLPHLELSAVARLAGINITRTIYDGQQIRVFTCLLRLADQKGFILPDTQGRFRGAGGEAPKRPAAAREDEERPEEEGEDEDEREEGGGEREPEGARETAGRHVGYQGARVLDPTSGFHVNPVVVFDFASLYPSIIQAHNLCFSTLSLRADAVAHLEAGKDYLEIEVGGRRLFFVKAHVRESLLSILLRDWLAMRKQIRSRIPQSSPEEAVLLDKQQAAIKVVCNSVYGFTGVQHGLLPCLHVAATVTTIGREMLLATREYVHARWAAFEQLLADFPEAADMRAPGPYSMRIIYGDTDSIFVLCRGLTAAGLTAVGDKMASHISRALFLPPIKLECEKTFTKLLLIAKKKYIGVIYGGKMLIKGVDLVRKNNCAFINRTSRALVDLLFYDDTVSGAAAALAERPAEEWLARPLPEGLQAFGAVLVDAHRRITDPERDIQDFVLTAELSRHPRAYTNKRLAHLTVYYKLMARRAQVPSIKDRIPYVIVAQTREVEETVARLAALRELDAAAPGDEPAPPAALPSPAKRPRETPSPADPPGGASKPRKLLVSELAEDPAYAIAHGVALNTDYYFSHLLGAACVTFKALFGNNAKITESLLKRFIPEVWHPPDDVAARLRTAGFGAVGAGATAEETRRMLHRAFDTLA
VZV polymerase, sequence (P09252 whole entry): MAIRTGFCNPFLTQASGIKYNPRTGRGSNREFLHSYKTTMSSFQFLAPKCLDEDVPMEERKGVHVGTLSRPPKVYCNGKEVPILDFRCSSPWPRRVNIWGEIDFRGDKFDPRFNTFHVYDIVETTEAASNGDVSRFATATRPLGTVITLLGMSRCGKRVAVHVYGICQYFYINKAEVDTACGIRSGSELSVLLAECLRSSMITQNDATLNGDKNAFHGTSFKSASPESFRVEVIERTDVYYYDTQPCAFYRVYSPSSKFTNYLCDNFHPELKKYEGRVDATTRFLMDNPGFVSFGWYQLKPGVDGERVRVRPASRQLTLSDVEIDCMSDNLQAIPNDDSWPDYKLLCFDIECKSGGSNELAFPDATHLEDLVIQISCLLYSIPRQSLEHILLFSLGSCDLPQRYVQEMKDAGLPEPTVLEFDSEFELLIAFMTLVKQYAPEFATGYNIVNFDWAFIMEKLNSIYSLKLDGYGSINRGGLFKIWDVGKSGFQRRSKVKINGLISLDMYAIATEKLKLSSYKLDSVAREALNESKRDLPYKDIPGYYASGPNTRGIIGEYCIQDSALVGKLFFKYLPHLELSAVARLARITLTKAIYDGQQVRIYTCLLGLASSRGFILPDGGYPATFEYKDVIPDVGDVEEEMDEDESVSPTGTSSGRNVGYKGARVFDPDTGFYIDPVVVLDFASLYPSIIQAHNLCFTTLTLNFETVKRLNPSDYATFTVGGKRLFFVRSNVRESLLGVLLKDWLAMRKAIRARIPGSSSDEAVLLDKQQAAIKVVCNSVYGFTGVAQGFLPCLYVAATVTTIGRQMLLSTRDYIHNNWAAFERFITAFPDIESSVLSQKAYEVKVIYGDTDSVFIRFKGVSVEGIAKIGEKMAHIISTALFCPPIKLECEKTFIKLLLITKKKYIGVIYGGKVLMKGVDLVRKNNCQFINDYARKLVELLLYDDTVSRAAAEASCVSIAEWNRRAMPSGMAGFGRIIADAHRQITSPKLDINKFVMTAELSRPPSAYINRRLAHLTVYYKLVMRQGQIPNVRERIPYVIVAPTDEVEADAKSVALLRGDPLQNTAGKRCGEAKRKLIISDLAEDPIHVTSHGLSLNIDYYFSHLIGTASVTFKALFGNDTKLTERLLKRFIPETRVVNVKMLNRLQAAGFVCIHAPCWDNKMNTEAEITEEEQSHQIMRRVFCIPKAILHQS

A word on the IC50: it is the midpoint of a concentration-inhibition curve. With `O=C(NCc1ccc(Cl)cc1)c1cnc2cc(-n3cccc3)ccc2c1O` [Example 32, N-[(4-Chlorophenyl)methyl]-4-hydroxy-7-(1-pyrrolyl)-3-quinolinecarboxamide], the figures for the IC50 at HSV polymerase, at HCMV polymerase and on VZV polymerase were above 100 µM, 22 µM and 53.8 µM, respectively.

On to `Nc1ccc2ncc(C(=O)NCc3ccc(Cl)cc3)c(O)c2c1` [Example 28, 6-Amino-N-[(4-chlorophenyl)methyl]-4-hydroxy-3-quinoline-carboxamide], for which the IC50 on HSV polymerase turned out to be 19.7 µM; on HCMV polymerase, 18 µM; on VZV polymerase, 8.3 µM.

As to `CC(O)CCc1ccc2ncc(C(=O)NCc3ccc(Cl)cc3)c(O)c2c1` (stereo not drawn) [Example 157, N-(4-Chlorobenzyl)-4-hydroxy-6-(3-hydroxybutyl)-3-quinolinecarboxamide], the IC50 at HSV polymerase was 1.8 µM; on HCMV polymerase, 0.92 µM; on VZV polymerase, 0.89 µM.

For the molecule `O=C(CBr)OCCCc1cc(F)c2ncc(C(=O)NCc3ccc(Cl)cc3)c(O)c2c1` [Example 145, 3-(3-{[(4-Chlorobenzyl)amino]carbonyl}-8-fluoro-4-hydroxy-6-quinolinyl)propyl 2-bromoacetate], the IC50 came out at 3.5 µM on HSV polymerase, 2.9 µM on HCMV polymerase and 2.5 µM at VZV polymerase.

For the molecule `O=C(NCc1ccc(Cl)cc1)c1cnc2c(F)cc(F)c(F)c2c1O` [Example 168, N-[(4-Chlorophenyl)methyl]-5,6,8-trifluoro-4-hydroxy-3-quinolinecarboxamide], the IC50 on HSV polymerase amounted to 8.4 µM; on HCMV polymerase it was 10 µM; at VZV polymerase, 4.1 µM.

As to `O=C(NCc1ccc(Cl)cc1)c1cnc2c(F)cc(CCCCO)cc2c1O` [Example 99, N-(4-Chlorobenzyl)-8-fluoro-4-hydroxy-6-(4-hydroxybutyl)-3-quinolinecarboxamide], the IC50 was 0.2 µM at HSV polymerase, 0.14 µM at HCMV polymerase and 0.09 µM on VZV polymerase.

On to `O=C(NCc1ccc(Cl)cc1)c1c[nH]c2ccc(/C=C/CO)cc2c1=O` [Example 136, N-[(4-Chlorophenyl)methyl]-1,4-dihydro-6-[(1E)-3-hydroxy-1-propenyl]-4-oxo-3-quinolinecarboxamide], for which the figures for the IC50 at HSV polymerase, at HCMV polymerase and on VZV polymerase were 0.7 µM, 0.68 µM and 0.39 µM, respectively.

Regarding `COc1cc(CCCO)cc2c(O)c(C(=O)NCc3ccc(Cl)cc3)cnc12` [Example 120, N-(4-Chlorobenzyl)-4-hydroxy-6-(3-hydroxypropyl)-8-methoxy-3-quinolinecarboxamide], the values for the IC50 on HSV polymerase, at HCMV polymerase and at VZV polymerase were 0.25 µM, 0.27 µM and 0.08 µM, respectively.

In the case of `O=C(NNc1ccc(Cl)cc1)c1cnc2c(F)c(F)c(F)cc2c1O` [Example 16, 6,7,8-Trifluoro-4-hydroxy-3-quinolinecarboxylic acid 2-(4-chlorophenyl)hydrazide], the figures for the IC50 on HSV polymerase, at HCMV polymerase and at VZV polymerase were 2.8 µM, 2.7 µM and 1.3 µM, respectively.

As for `O=C(NCc1ccc(Cl)cc1)c1cnc2cc(C(F)(F)F)ccc2c1O` [Example 1, N-[(4-Chlorophenyl)methyl]-4-hydroxy-7-(trifluoromethyl)-3-quinoline-carboxamide], the figures for the IC50 at HSV polymerase, on HCMV polymerase and at VZV polymerase were 35.5 µM, 38.2 µM and 13.3 µM, respectively.

On to `O=C(NCc1ccc(Cl)cc1)c1cnc2ccccc2c1O` [Example 6, N-[(4-Chlorophenyl)methyl]-4-hydroxy-3-quinolinecarboxamide], for which the IC50 worked out at 2.3 µM on HSV polymerase, 7.6 µM on HCMV polymerase and 0.7 µM at VZV polymerase.

As for `O=C(NCc1ccc(Cl)cc1)c1cnc2ccc(F)cc2c1O` [Example 10, N-[(4-Chlorophenyl)methyl]-6-fluoro-4-hydroxy-3-quinoline-carboxamide], the values for the IC50 on HSV polymerase, at HCMV polymerase and on VZV polymerase were 14 µM, 9.7 µM and 3.9 µM, respectively.

`COc1ccc2c(O)c(C(=O)NCc3ccc(Cl)cc3)cnc2c1` [Example 7, N-[(4-Chlorophenyl)methyl]-4-hydroxy-7-methoxy-3-quinoline-carboxamide]: the concentration for half-maximal inhibition (IC50) at HSV polymerase turned out to be 5.5 µM; on HCMV polymerase, 4.9 µM; at VZV polymerase it was 0.7 µM.

`O=C(NCc1ccc(Cl)cc1)c1cnc2c(F)c(F)c(F)c(F)c2c1O` [Example 14, N-[(4-Chlorophenyl)methyl]-5,6,7,8-tetrafluoro-4-hydroxy-3-quinolinecarboxamide]: the IC50 at HSV polymerase worked out at 7.9 µM; on HCMV polymerase, 11.5 µM; at VZV polymerase, 3.6 µM.
